Where “and” joins values, the source holds several entries; their conditions need not be identical. Identical values can stand only once.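 96-well plates; 48 h exposure; 5 concentrations. Endpoints by linear interpolation between flanking doses. Not reached: highest tested concentration assigned. At the GI50, growth is halved. TGI: concentration producing complete growth inhibition.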

Among the test systems are A498 renal; BT-549 breast; CCRF-CEM leukemia; EKVX NSCLC; IGROV1 ovarian; MDA-MB-435; NCI-H23 lung; NCI/ADR-RES ovarian; SF-539 CNS; SK-MEL-5 melanoma.
Experiment in all cases: inhibition of tumour cell growth, NCI panel, 48 h

Regarding `Oc1ccc(SCc2ccc(NCc3ccccc3)cc2)cc1`, the TGI with A498 renal is 88 µM; in the experiment on BT-549 breast it was above 100 µM; in the experiment with CCRF-CEM leukemia it was 64.8 µM; in the experiment on EKVX NSCLC, 50.3 µM; in the experiment on IGROV1 ovarian it was above 100 µM; with MDA-MB-435, above 100 µM. Besides, the TGI is above 100 µM in the experiment on NCI-H23 lung, above 100 µM in the experiment on NCI/ADR-RES ovarian, above 100 µM in the experiment with SF-539 CNS and 47.3 µM in the experiment with SK-MEL-5 melanoma.
With `COc1ccc(Cn2cc(Cn3c(=O)c(-c4nc5ccccc5[nH]4)cc4ccccc43)nn2)c(OC)c1OC`, the GI50 with A498 renal was 0.118 µM; in the experiment on BT-549 breast it was 502 nM; with CCRF-CEM leukemia, 174 nM and 443 nM; in the experiment on EKVX NSCLC it was 904 nM and 605 nM; in the experiment on IGROV1 ovarian it was 186 nM and 445 nM; in the experiment on MDA-MB-435, 82.1 nM and 45.3 nM. The GI50 in the experiment on NCI-H23 lung is 329 nM and 581 nM; in the experiment on NCI/ADR-RES ovarian, 1100 nM and 1830 nM; in the experiment with SF-539 CNS, 144 nM and 206 nM; in the experiment with SK-MEL-5 melanoma, 307 nM and 274 nM. The TGI was 0.607 µM with A498 renal; 1.52 µM in the experiment on BT-549 breast; 50 µM and > 100 µM with EKVX NSCLC; 1.84 µM and 3.66 µM in the experiment on IGROV1 ovarian; 0.186 µM and 0.17 µM with MDA-MB-435; 50 µM and > 100 µM in the experiment with NCI-H23 lung. For the same compound, the TGI was 3.96 µM and 15.8 µM with NCI/ADR-RES ovarian; 0.664 µM and 0.872 µM in the experiment with SF-539 CNS; 1.04 µM and 1.45 µM with SK-MEL-5 melanoma.
On to `O=C1C(=O)c2c(nc3ncccn23)-c2ccccc21`, for which the GI50 in the experiment with A498 renal was 0.484 µM; in the experiment on BT-549 breast it was 154 nM; in the experiment with CCRF-CEM leukemia, 328 nM; in the experiment on EKVX NSCLC, 396 nM; in the experiment with IGROV1 ovarian it was 245 nM; in the experiment on MDA-MB-435, 114 nM. The GI50 in the experiment with NCI-H23 lung is 193 nM; in the experiment on NCI/ADR-RES ovarian, 301 nM; with SF-539 CNS, 188 nM; with SK-MEL-5 melanoma it was 167 nM. For the same compound, the TGI with A498 renal was 1.28 µM; with BT-549 breast it was 0.291 µM; with CCRF-CEM leukemia it was 3.45 µM; with EKVX NSCLC it was 0.954 µM; in the experiment with IGROV1 ovarian, 0.566 µM; in the experiment on MDA-MB-435 it was 0.254 µM. The TGI was 0.432 µM in the experiment on NCI-H23 lung, 0.962 µM with NCI/ADR-RES ovarian, 0.388 µM in the experiment with SF-539 CNS and 0.304 µM in the experiment with SK-MEL-5 melanoma.
`CCN1CCCCC(=N\O)/C(=N/O)CCCC1`: the TGI in the experiment on A498 renal, with BT-549 breast, with CCRF-CEM leukemia, in the experiment on EKVX NSCLC, with IGROV1 ovarian and in the experiment on MDA-MB-435 was above 100 µM each time. The TGI in the experiment on NCI-H23 lung, with NCI/ADR-RES ovarian, with SF-539 CNS and in the experiment on SK-MEL-5 melanoma was above 100 µM each time.
With `O=C1C=C(Nc2nc(C(=O)O)cc(=O)[nH]2)c2ccccc2C1=O`, the TGI in the experiment on A498 renal, in the experiment with BT-549 breast, with CCRF-CEM leukemia, in the experiment with EKVX NSCLC, in the experiment with IGROV1 ovarian and in the experiment with MDA-MB-435 was above 100 µM in each case. In addition, the TGI in the experiment with NCI-H23 lung, with NCI/ADR-RES ovarian, with SF-539 CNS and in the experiment on SK-MEL-5 melanoma was above 100 µM each time.
On to `O=[N+]([O-])c1ccc2c(c1)S(=O)c1ccccc1-2` (centres undefined), for which the TGI with A498 renal, with BT-549 breast, in the experiment with CCRF-CEM leukemia, in the experiment on EKVX NSCLC, in the experiment on IGROV1 ovarian and with MDA-MB-435 was above 100 µM each time. Besides, the TGI in the experiment with NCI-H23 lung, with NCI/ADR-RES ovarian, with SF-539 CNS and in the experiment on SK-MEL-5 melanoma was above 100 µM in each case.
On to `C=C1C(=O)O[C@H]2[C@H]1CC/C(COC(=O)C(=O)c1cn(C)c3ccc(OC)cc13)=C\CC[C@@]1(C)O[C@@H]21`, for which the GI50 is 6.77 µM in the experiment on A498 renal; 1750 nM in the experiment with BT-549 breast; 2390 nM in the experiment with CCRF-CEM leukemia; 8190 nM with EKVX NSCLC; 2270 nM in the experiment on IGROV1 ovarian; 3830 nM with MDA-MB-435. The GI50 with NCI-H23 lung was 6440 nM; in the experiment with NCI/ADR-RES ovarian, 4970 nM; in the experiment on SF-539 CNS it was 4960 nM; in the experiment on SK-MEL-5 melanoma it was 4030 nM. In addition, the TGI with A498 renal stood at 10.1 µM; in the experiment on BT-549 breast it was 3.28 µM; in the experiment on CCRF-CEM leukemia, 22.4 µM; with EKVX NSCLC, 16.3 µM; with IGROV1 ovarian, 6.01 µM; with MDA-MB-435 it was 9.49 µM. In addition, the TGI with NCI-H23 lung worked out at 12.4 µM; with NCI/ADR-RES ovarian, 25.8 µM; with SF-539 CNS, 8.94 µM; in the experiment with SK-MEL-5 melanoma, 7.56 µM.
Regarding `NCC(=O)CCC(=O)O`, the GI50 in the experiment on A498 renal was above 100 µM; with BT-549 breast, above 100000 nM; with CCRF-CEM leukemia, above 87200 nM; in the experiment with EKVX NSCLC, above 100000 nM; in the experiment on IGROV1 ovarian it was above 100000 nM; in the experiment with MDA-MB-435, above 100000 nM. Moreover, the GI50 in the experiment with NCI-H23 lung, in the experiment on NCI/ADR-RES ovarian, in the experiment on SF-539 CNS and in the experiment with SK-MEL-5 melanoma was above 100000 nM throughout. Also, the TGI with A498 renal, with BT-549 breast, with CCRF-CEM leukemia, in the experiment on EKVX NSCLC, with IGROV1 ovarian and in the experiment on MDA-MB-435 was above 100 µM each time. The TGI in the experiment with NCI-H23 lung, with NCI/ADR-RES ovarian, in the experiment on SF-539 CNS and in the experiment with SK-MEL-5 melanoma was above 100 µM throughout.
In the case of `Cc1ccc(-n2c(-c3ccc(Cl)cc3)cs/c2=N\NC(=O)COc2n[nH]c(=O)c3ccccc23)cc1`, the GI50 with A498 renal is above 100 µM; in the experiment with BT-549 breast it was above 100000 nM; in the experiment with CCRF-CEM leukemia it was above 100000 nM; in the experiment on EKVX NSCLC, 59600 nM; in the experiment on IGROV1 ovarian it was above 100000 nM; in the experiment on MDA-MB-435 it was above 100000 nM. In addition, the GI50 in the experiment on NCI-H23 lung was 34100 nM; in the experiment on NCI/ADR-RES ovarian, above 100000 nM; in the experiment with SF-539 CNS it was 19600 nM; in the experiment on SK-MEL-5 melanoma it was above 100000 nM. In addition, the TGI in the experiment on A498 renal, in the experiment on BT-549 breast, with CCRF-CEM leukemia, in the experiment on EKVX NSCLC, in the experiment on IGROV1 ovarian and in the experiment with MDA-MB-435 was above 100 µM each time. Besides, the TGI was above 100 µM with NCI-H23 lung, above 100 µM in the experiment on NCI/ADR-RES ovarian, 71.8 µM in the experiment with SF-539 CNS and above 100 µM with SK-MEL-5 melanoma.

The record behind these values is PubChem BioAssay (NCI).
